This note sets out measurements from paper PMC6270837, “Preparation and Biological Properties of Ring-Substituted Naphthalene-1-Carboxanilides” (Molecules, 2014).

Data set [1] can be described thus: Lipophilicity determination by RP-HPLC (capacity factor, log k). It is filed as physicochemical. The settings on record: end-capped C18, isocratic MeOH 60%/H2O 40%. The method, then:
Lipophilicity is a property that has a major effect on bioavailability, biotransformation as well as pharmacological activity, because drugs cross biological membranes through passive transport, which strongly depends on their lipophilicity. Lipophilicity of the studied compounds was determined by RP‑HPLC as capacity factor logarithm (log k). The procedure was performed under isocratic conditions with methanol as an organic modifier in the mobile phase using an end-capped non-polar C18 stationary RP column. The results of ring-substituted naphthalene-1-carboxanilides 1–8c are shown in Table 1 and illustrated in Figure 1. […] Lipophilicity was also calculated as log P using ACD/Percepta ver. 2012 (Advanced Chemistry Development, Inc., Toronto, ON, Canada).
A HPLC system Agilent 1200 equipped with DAD detector (Agilent, USA) was used. A chromatographic column Symmetry® C18 5 μm, 4.6 × 250 mm, Part No. WAT054275 (Waters Corp., Milford, MA, USA) was used. The HPLC separation process was monitored and evaluated by EZChrom Elite software ver. 3.3.2 (Agilent, USA). Isocratic elution by a mixture of MeOH p.a. (60%) and H2O-HPLC Mili-Q grade (40%) as a mobile phase was used. The total flow of the column was 1.0 mL/min, injection 20 μL, column temperature 40 °C, and sample temperature 10 °C. The detection wavelength 210 nm was chosen. The KI methanolic solution was used for the dead time (tD) determination. Retention times (tR) were measured in minutes. The capacity factors k were calculated according to formula k = (tR − tD)/tD, where tR is the retention time of the solute, whereas tD denotes the dead time obtained using an unretained analyte. Log k, calculated from the capacity factor k, is used as the lipophilicity index converted to log P scale.

Data set [2] deals with Mycobacterium avium subsp. paratuberculosis CIT03. In words: In vitro antimycobacterial evaluation (MIC/IC90, alamarBlue). It is filed as cell-based. The settings on record: for MIC: Mycobacterium avium. Here is the method: The MIC/IC90 value is routinely and widely used in bacterial assays and is a standard detection limit according to the Clinical and Laboratory Standards Institute.
A well-characterized clinical isolate of Mycobacterium avium subsp. paratuberculosis (CIT03) was grown in Middlebrook broth (MB), supplemented with Oleic-Albumin-Dextrose-Catalase supplement (OADC, Becton, Dickinson and Comp., Franklin Lakes, NJ, USA) and mycobactin J (2 µg/mL). Identification of this isolate was performed using biochemical and molecular protocols. At log phase growth, a culture sample (10 mL) was centrifuged at 15,000 rpm/20 min using a bench top centrifuge (Model CR 4-12, Jouan Inc., Winchester, VA, USA). Following removal of the supernatant, the pellet was washed in fresh Middlebrook 7H9GC broth and re-suspended in fresh supplemented MB (10 mL). The turbidity was adjusted to match McFarland standard No. 1 (3 × 10^8 cfu) with MB broth. A further 1:20 dilution of the culture was then performed in MB broth. The antimicrobial susceptibility of the mycobacterial species was investigated in a 96-well plate format. In these experiments, sterile deionized water (300 µL) was added to all outer-perimeter wells of the plates to minimize evaporation of the medium in the test wells during incubation. Each evaluated compound (100 µL) was incubated with the mycobacterial species (100 µL). Dilutions of each compound were prepared in duplicate. For all synthesized compounds, final concentrations ranged from 1,000 µg/mL to 8 µg/mL. All compounds were prepared in DMSO and subsequent dilutions were made in supplemented MB. The plates were sealed with parafilm and incubated at 37 °C for 11 days.
Following incubation, a 10% addition of alamarBlue (AbD Serotec, Kidlington, UK) was mixed into each well and readings at 570 nm and 600 nm were taken, initially for background subtraction and subsequently after 24 h re-incubation. […] For non-interfering compounds, a blue colour in the well was interpreted as an absence of growth and a pink colour was scored as growth. Furthermore percent reduction of alamarBlue was calculated to generate quantitative data on cell viability during exposure to antimycobacterial compounds over a period of 5 days. The formula used to determine percent reduction of alamarBlue has been standardized for colorimetric analysis by Abd Serotec.
The MIC value is routinely and widely used in bacterial assays and is a standard detection limit according to the Clinical and Laboratory Standards Institute.

The test system of data set [3] is M. avium subsp. paratuberculosis. Briefly: MTT assay on mycobacteria. It is filed as cell-based, Mycobacterium avium subsp. paratuberculosis. The settings on record: lowest tested concentration 8 µg/mL (ca. 30 µmol/L), four hours of incubation. The method, then:
Additionally, a standard MTT assay was performed on these same compounds. The MTT assay is a well-characterized method of assessing cell growth through measurement of respiration.
For the MTT assay, the same 96-well plate set up and incubation conditions listed above were used. After the incubation period, a 10% addition of MTT reagent was mixed into each well and incubated at 37 °C for 4 h. The reagent and media were then aspirated from the wells to which 50 µL DMSO was then added and plates were read at 550 nm.

Data set [4] relates to photosynthetic electron transport (PET) in isolated spinach chloroplasts. In words: Inhibition of photosynthetic electron transport (PET) in isolated spinach chloroplasts. It is filed as biochemical, Spinacia oleracea L. The settings on record: DCPIP photoreduction. Here is the method: The PET-inhibiting activity was expressed by IC50 value, i.e., compound concentration in mol/L causing 50% inhibition of PET.
(§1) Chloroplasts were prepared from spinach (Spinacia oleracea L.) according to Masarovicova and Kralova. The inhibition of photosynthetic electron transport (PET) in isolated spinach chloroplasts was determined spectrophotometrically (Genesys 6, Thermo Scientific, USA), using an artificial electron acceptor 2,6-dichlorophenol-indophenol (DCIPP) according to Kralova et al., and the rate of photosynthetic electron transport was monitored as a photoreduction of DCPIP. The measurements were carried out in phosphate buffer (0.02 mol/L, pH 7.2) containing sucrose (0.4 mol/L), MgCl2 (0.005 mol/L) and NaCl (0.015 mol/L). The chlorophyll content was 30 mg/L in these experiments and the samples were irradiated (~100 W/m^2 with 10 cm distance) with a halogen lamp (250 W) using a 4 cm water filter to prevent warming of the samples (suspension temperature 22 °C). The studied compounds were dissolved in DMSO due to their limited water solubility. […] The inhibitory efficiency of the studied compounds was expressed by IC50 values, i.e., by molar concentration of the compounds causing 50% decrease in the oxygen evolution rate relative to the untreated control.

Data set [5] can be described thus: Solubility in PET tested medium. It is filed as physicochemical. The settings on record: PET assay medium, phosphate buffer pH 7.2, DMSO up to 4%. Here is the method:
as §1

The next data set can be described thus: physchem. The settings on record: aqueous buffer, kinetic from dmso stock.
Setting [6] is: M. avium subsp. paratuberculosis, comparison of MICs.

As a reminder, the IC50 is the point on the concentration scale where inhibition reaches its midpoint. A higher IC50 goes with weaker potency. The term solubility denotes the dissolved amount per volume that the medium holds.

Like-named read-outs stand apart in the source and are kept apart here.

Regarding `Cc1ccc(NC(=O)c2cccc3ccccc23)cc1` [Compound 3c, N-(4-Methylphenyl)naphthalene-1-carboxamide], in data set [1], the log k turned out to be 0.7551. Besides, in data set [2] (setting [6]), the “antimycobacterial activity relative to ciprofloxacin” value was “three-fold higher” and the “antimycobacterial activity relative to rifampicin” value is reported as “two-fold higher”. Besides, in data set [2] (264 h, clinical isolate CIT03, 11 days at 37 °C, alamarBlue, MIC = 90% or greater reduction of growth, read-out: MAP MIC/IC90), the MIC came to 57 µM. Further, the MIC in data set [2] (clinical isolate CIT03, read-out: MIC) stood at 15 µg/mL. Further, the “MAP MIC/IC90” value in data set [2] (clinical isolate CIT03, 11 days at 37 °C, alamarBlue, MIC = 90% or greater reduction of growth) was determined as 57 µM. Moreover, the “reduction in activity (MTT)” value in data set [3] is on record as “more than 80%”. This compound gave an IC50 in data set [4] of 381 µM. Further, the “solubility in tested medium (PET experiments)” value in data set [5] was “limited solubility”. This compound registered a solubility in the data set “physchem” of at most 30 µM.
